Structures can show the parent of a compound that is named as a salt.
Legend:
Solubility (qualitative) = format: physicochemical; conditions: for solubility in sodium hydroxide / alkaline solutions: aqueous sodium hydroxide or alkaline solutions; for solubility in hydrochloric acid: (diluted) hydrochloric acid
[1] = pH of the aqueous solution; format: physicochemical; conditions: dissolved in the previously-calculated amount of sodium hydroxide
male mice (strain CD) = assay: Acute toxicity (LD50, Litchfield and Wilcoxon); format: in vivo; conditions: intraperitoneal, 8 days survey
Excerpt: The acute toxicity of these compounds has been determined on batches of male mice (strain CD) weighing about 20 g. They received the compounds to be tested at increasing doses either intraperitoneally or orally.
The animals are kept under survey for eight days. The deaths when present are numbered.
The average lethal dosage is graphically calculated according to the method of Litchfield and Wilcoxon.

| Compound | solubility in sodium hydroxide / alkaline solutions (Solubility (qualitative)) | other results |
| --- | --- | --- |
| CCC(OC(c1ccc(N2CCCCC2)cc1)C(F)(F)F)C(=O)O (racemic) [Example XIV hydrochloride, dl-2-[1-(4-piperidinophenyl)-2-trifluoroethoxy]butyric acid] | – | solubility in water (Solubility (qualitative)): freely soluble in water |
| CCC(OC(c1ccc(N2CCOCC2)cc1)C(F)(F)F)C(=O)O (racemic) [Example XV hydrochloride, dl-2-[1-(4-morpholinophenyl)-2-trifluoroethoxy]butyric acid] | – | solubility in water (Solubility (qualitative)): soluble in water |
| CC(OC(c1ccccc1)C(F)(F)F)C(=O)O (racemic) [IV, dl-α-(2,2,2-trifluoro-1-phenylethoxy)propionic acid] | dissolves in the stoichiometric amount of sodium hydroxide | – |
| CCC(OC(c1ccc(Oc2ccc(Cl)cc2)cc1)C(F)(F)F)C(=O)O (racemic) [XII, dl-2-[1-(4-chlorophenoxyphenyl)-2,2,2-trifluoroethoxy]butyric acid] | soluble in dilute sodium hydroxide solutions | – |
| O=C(O)C(OC(c1ccccc1)C(F)(F)F)c1ccccc1 (racemic) [XVII, dl-2-(1-phenyl-2-trifluoroethoxy)phenyl acetic acid] | soluble in the dilute solutions of sodium hydroxide | – |
| CCC(OC(c1cccs1)C(F)(F)F)C(=O)O (racemic) [XVIII, dl-2-[1-(thienyl-2)-2,2,2-trifluoroethoxy]butyric acid] | soluble in dilute solutions of sodium hydroxide | – |
| CCC(OC(c1cccc2ccccc12)C(F)(F)F)C(=O)O (racemic) [XXI, Dl-2-[(naphtyl-1)-2,2,2-trifluoroethoxy]butyric acid] | soluble in the previously-calculated amount of sodium hydroxide | pH value of the aqueous solution [1]: 7-8 |
| CCC(OC(c1ccc2ccccc2c1)C(F)(F)F)C(=O)O (racemic) [XXII, dl-2-[1-(naphtyl-2)-2,2,2-trifluoroethoxy]butyric acid] | soluble in the previously-calculated amount of sodium hydroxide | – |
| CCC(OC(c1ccc(N2CCCCCC2)cc1)C(F)(F)F)C(=O)O (racemic) [XXIV, dl-2-[[4-(1-hexamethyleneimino)phenyl]-2,2,2-trifluoroethoxy] butyric acid] | soluble in the dilute aqueous solutions of sodium hydroxide | solubility in hydrochloric acid (Solubility (qualitative)): insoluble in diluted hydrochloric acid |
| CCC(OC(c1ccc(N2CCCCCCC2)cc1)C(F)(F)F)C(=O)O (racemic) [XXV, dl-2-[[4-(heptamethyleneimino-1)phenyl-2,2,2-trifluoroethoxy)] butyric acid] | soluble in the aqueous solutions of sodium hydroxide | solubility in hydrochloric acid (Solubility (qualitative)): insoluble in hydrochloric acid |
| CCC(OC(c1ccc(Cl)cc1)C(F)(F)F)C(=O)O (single isomer, unassigned) [Example IX (acid, isomer β), α-[2,2,2-trifluoro-1-(p-chlorophenylethoxy]butyric acid (isomer β)] | soluble in the previously-calculated amount of sodium hydroxide | – |
| CCC(OC(c1ccccc1)C(F)(F)F)C(=O)O (stereo not drawn) [Example II, α-(2,2,2-trifluoro-1-phenyl-1-ethoxy)butyric acid] | soluble in the previously-calculated amount of sodium hydroxide in aqueous solution | – |
| CCC(OC(c1ccc(Cl)cc1)C(F)(F)F)C(=O)O (stereo not drawn) [Example V (1), α-[2,2,2-trifluoro-1-(4-chlorophenyl)ethoxy]butyric acid] | soluble in an aqueous solution of sodium hydroxide | – |
| CCC(OC(c1ccc(OC)cc1)C(F)(F)F)C(=O)O (stereo not drawn) [Example V (4-methoxyphenyl), α-[2,2,2-trifluoro-1-(4-methoxyphenyl)ethoxy]butyric acid] | soluble in alkaline solutions | solubility in water (Solubility (qualitative)): insoluble in water |
| CCC(OC(c1ccccc1)C(F)(F)F)C(=O)NO (stereo not drawn) [Example VI, α-(2,2,2-trifluoro-1-phenylethoxy)butyryl hydroxamic acid] | soluble in the previously-calculated amount of sodium hydroxide | – |
| CCC(OC(c1ccccc1)C(F)(F)F)C(=O)N1CCOCC1 (stereo not drawn) [Example VII, 4-[α-(2,2,2-trifluoro-1-phenylethoxy)butyryl]morpholine] | – | solubility in common organic solvents (Solubility (qualitative); common organic solvents): soluble in the common organic solvents; solubility in water (Solubility (qualitative)): insoluble in water |
| CCC(OC(c1ccccc1)C(F)(F)F)C(=O)N1CCCCC1 (stereo not drawn) [VIII, 1-[α-(2,2,2-trifluoro-1-phenylethoxy)butyryl]piperidine] | – | solubility in water (Solubility (qualitative)): insoluble in water |
| dl-2-[1-(p-chlorophenylethoxy)-2,2,2-trifluoroethoxy] butyric acid | – | mean lethal dose (LD50) (male mice (strain CD)): about 400 mg/kg |

— patent US4288453A, “Derivatives of arylalkanoic acids, compositions and use” (Science Union et Cie, priority 1977, dated 1981)
